One data set deals with KKA^y mice. Kind of data set: Hypoglycemic and hypolipidemic actions in mice (plasma glucose and triglyceride). The format is in vivo. To be noted: Mus musculus, po, 96 h, reduction from control group, 0.005% in powdery feed for 4 days. From the text:
Hypoglycemic and Hypolipidemic Actions in Mice
A test compound mixed in a powdery feed (CE-2, Japan Clea) at a rate of 0.005% was fed to KKA^y mice (9-14 week old) freely for 4 days. During the period, the animals had free access to water. Blood was collected from the orbital venous plexus. Using the plasma, glucose and triglyceride were enzymatically determined quantitatively by using Iatrochem-GLU(A) and Iatro-MA701 TG kit (latron Inc.). The respective values are percents reduction (%) found in drug-dosed groups from the control group not receiving the test compound, which are shown in [Table 1].

[1] abbreviates: plasma glucose, read-out: Hypoglycemic Action % reduction.
[2] abbreviates: plasma triglyceride, read-out: Hypolipidemic Action % reduction.

Like-named read-outs stand apart in the source and are kept apart here.

As a reminder, the melting point is the temperature, or range, at which the solid turns liquid. On to `Cc1cccc(-c2nc(CCOc3ccc(C=CC=C4OC(=O)NC4=O)cc3)c(C)o2)c1` [Example 1, 5-[4-[2-[5-methyl-2-(3-methylphenyl)-4-oxazolyl]ethoxy]cinnamylidene]-2,4-oxazolidinedione], for which the melting point is 213 to 214 °C.

Consider `Cc1oc(-c2ccccc2)nc1Cc1cc2cc(C=CC=C3OC(=O)NC3=O)ccc2o1` [Example 14, 5-[3-[2-(5-methyl-2-phenyl-4-oxazolylmethyl)benzofuran-5-yl]-2-propenylidene]-2,4-oxazolidinedione], for which the melting point is 237 to 239 °C.

`Cc1oc(-c2ccccc2)nc1CCOc1ccc(C=CC=CC=C2OC(=O)NC2=O)cc1` [Example 15, 5-[5-[4-[2-(5-methyl-2-phenyl-4-oxazolyl)ethoxy]phenyl]-2,4-pentadienylidene]-2,4-oxazolidinedione] gave a melting point of 209 to 211 °C.

Regarding `Cc1cccc(-c2nc(CCOc3ccc(CCCC4OC(=O)NC4=O)cc3)c(C)o2)c1` (stereo not drawn) [Example 16, 5-[3-[4-[2-[5-methyl-2-(3-methylphenyl)-4-oxazolyl]ethoxy]phenyl]propyl]-2,4-oxazolidinedione], the melting point fell in the range of 149 to 150 °C.

`Cc1oc(-c2ccccc2)nc1CCOc1ccc(CCCC2OC(=O)NC2=O)cn1` (stereo not drawn) [Example 23, 5-[3-[2-[2-(5-methyl-2-phenyl-4-oxazolyl)ethoxy]-5-pyridyl]propyl]-2,4-oxazolidinedione] yielded a melting point of 169 to 171 °C. Moreover, the inhibition in vivo at 0.005 % in diet with KKA^y mice (setting [1]) was 39%. Moreover, the inhibition in vivo at 0.005 % in diet with KKA^y mice (setting [2]) was 33%.

Take `Cc1oc(-c2ccccc2)nc1CCOc1ccc(CCC2OC(=O)NC2=O)cc1` (stereo not drawn) [Example 24, 5-[2-[4-[2-(5-methyl-2-phenyl-4-oxazolyl)ethoxy]phenyl]ethyl]-2,4-oxazolidinedione]: the melting point fell in the range of 193 to 194 °C. The inhibition in vivo at 0.005 % in diet in the data set on KKA^y mice (setting [1]) came to 56%. For the same compound, the inhibition in vivo at 0.005 % in diet with KKA^y mice (setting [2]) is 53%.

On to `Cc1oc(-c2ccccc2)nc1Cc1cc2cc(CCCC3OC(=O)NC3=O)ccc2o1` (stereo not drawn) [Example 30, 5-[3-[2-(5-methyl-2-phenyl-4-oxazolylmethyl)benzofuran-5-yl]propyl]-2,4-oxazolidinedione], for which the melting point was in the range of 184 to 185 °C. Further, in the data set with KKA^y mice (setting [1]), the inhibition in vivo at 0.005 % in diet amounted to 57%. For the same compound, the inhibition in vivo at 0.005 % in diet in the data set on KKA^y mice (setting [2]) was 70%.

On to `Cc1oc(-c2ccccc2)nc1CCOc1ccc(CCCCCC2OC(=O)NC2=O)cc1` (stereo not drawn) [Example 31, 5-[5-[4-[2-(5-methyl-2-phenyl-4-oxazolyl)ethoxy]phenyl]pentyl]-2,4-oxazolidinedione], for which the melting point was 157 to 158 °C.

On to `Cc1oc(-c2ccccc2)nc1COc1ccc(CCC2OC(=O)NC2=O)cc1` (stereo not drawn) [Example 32, 5-[2-[4-(5-methyl-2-phenyl-4-oxazolylmethoxy)phenyl]ethyl]-2,4-oxazolidinedione], for which the values for the inhibition in vivo at 0.005 % in diet in the data set on KKA^y mice (setting [1]) and in the data set with KKA^y mice (setting [2]) were 63% and 60%, respectively.

With `Cc1oc(-c2ccccc2)nc1COc1ccc(CCCCCC2OC(=O)NC2=O)cc1` (stereo not drawn) [Example 33, 5-[5-[4-(5-methyl-2-phenyl-4-oxazolylmethoxy)phenyl]pentyl]-2,4-oxazolidinedione], the melting point was in the range of 120 to 121 °C. Moreover, the inhibition in vivo at 0.005 % in diet in the data set on KKA^y mice (setting [1]) was found to be 45%. In addition, the inhibition in vivo at 0.005 % in diet with KKA^y mice (setting [2]) was 59%.

`Cc1oc(-c2ccccc2)nc1COc1ccc(CCCCC2OC(=O)NC2=O)cc1` (stereo not drawn) [Example 34, 5-[4-[4-(5-methyl-2-phenyl-4-oxazolylmethoxy)phenyl]butyl]-2,4-oxazolidinedione] came in with a melting point of 186 to 187 °C. Further, the inhibition in vivo at 0.005 % in diet in the data set on KKA^y mice (setting [1]) was 43%. Moreover, in the data set on KKA^y mice (setting [2]), the inhibition in vivo at 0.005 % in diet is 51%.

Regarding `Cc1oc(-c2ccccc2)nc1C(=O)COc1ccc(CCCC2OC(=O)NC2=O)cc1` (stereo not drawn) [Example 35, 5-[3-[4-[2-(5-methyl-2-phenyl-4-oxazolyl)-2-oxoethoxy]phenyl]propyl]-2,4-oxazolidinedione], the values for the inhibition in vivo at 0.005 % in diet in the data set with KKA^y mice (setting [1]) and in the data set on KKA^y mice (setting [2]) were 42% and 32%, respectively.

`Cc1oc(-c2ccccc2)nc1C(O)COc1ccc(CCCC2OC(=O)NC2=O)cc1` (stereo not drawn) [Example 36, 5-[3-[4-[2-hydroxy-2-(5-methyl-2-phenyl-4-oxazolyl)ethoxy]phenyl]propyl]-2,4-oxazolidinedione] displayed a melting point of 146 to 147 °C. The inhibition in vivo at 0.005 % in diet in the data set on KKA^y mice (setting [1]) worked out at 56%. Besides, the inhibition in vivo at 0.005 % in diet in the data set on KKA^y mice (setting [2]) was 48%.

For `Cc1oc(-c2ccccc2)nc1COc1ccc(CCCC2OC(=O)NC2=O)cn1` (stereo not drawn) [Example 52, 5-[3-[2-(5-methyl-2-phenyl-4-oxazolylmethoxy)-5-pyridyl]propyl]-2,4-oxazolidinedione], the inhibition in vivo at 0.005 % in diet in the data set on KKA^y mice (setting [1]) came out at 54%; in the data set on KKA^y mice (setting [2]), 82%.

Take `Cc1oc(-c2ccccc2)nc1COc1cccc(CCCC2OC(=O)NC2=O)c1` (stereo not drawn) [Example 56, 5-[3-[3-(5-methyl-2-phenyl-4-oxazolylmethoxy)phenyl]propyl]-2,4-oxazolidinedione]: the inhibition in vivo at 0.005 % in diet was 32% with KKA^y mice (setting [1]) and 24% in the data set with KKA^y mice (setting [2]).

On to `Cc1oc(-c2ccccc2)nc1COc1ccc(C(C)CCC2OC(=O)NC2=O)cc1` (stereo not drawn) [Example 60, 5-[3-[4-(5-methyl-2-phenyl-4-oxazolylmethoxy)phenyl]butyl]-2,4-oxazolidinedione], for which the inhibition in vivo at 0.005 % in diet in the data set with KKA^y mice (setting [1]) is 54%; with KKA^y mice (setting [2]) it was 77%.

Values taken from patent US6552058B1, “Oxazolidinedione derivatives and their use” (Takeda Chemical Industries, Ltd., priority 1993, dated 2003).
